# From patent US20170304288A1, “Formulations of Methionine Aminopeptidase Inhibitors for Treating Infectious Diseases” (Texas Southern University, priority 2013, published 2017)
# What was measured:
# [1] = Stability in plasma and urine samples for LC-MS/MS analysis; type: in vitro ADME, rat
# Method: The short-term (bench-top) stability of compound 5 in plasma and urine samples was evaluated by analyzing three sets each of freshly prepared plasma and urine samples containing compound 5 and placed them on the bench-top for 2, 4, and 6 h, respectively or at −80° C. for 14 days. All the samples were compared with freshly prepared samples of the same concentration.
# The stability of compound 5 in processed samples (on-instrument or auto-sampler stability) was also evaluated by comparing freshly prepared plasma and urine QC samples to similar samples placed on the auto-sampler for 2, 4, and 6 h respectively. One set of the plasma and urine QC samples was extracted with acetonitrile containing IS, and the other set with pure acetonitrile without IS.
# [2] = Stability of co-solvent formulations at storage temperatures; type: physicochemical; settings: stored at −20° C., 4° C. and 25° C.; Day 3, 7, 14 and 30
# Method: The stability of the optimal co-solvent formulations was investigated at various storage temperatures. Briefly, aliquots of the optimal co-solvent formulations were stored at different temperatures (−20° C., 4° C. and 25° C.) and analyzed using LC/MS/MS on Day 3, 7, 14 and 30 to determine the amount of compound 5 remaining. The experiment was conducted in triplicates. […] The optimal co-solvent formulations were applied to the pharmacokinetic study of compound 5 in rats (Table 18).
# E. faecalis V583 = assay: Assay of E. faecalis inhibition (MIC) in BHI culture
# [3] = Octanol-water partition co-efficient, shaker method; type: physicochemical; settings: read-out: experimental M log P
# Method: The octanol—water partition co-efficient (log P) of compound 5, which measures its hydrophilicity (“water-loving” property) or hydrophobicity (“water-repelling” property), was evaluated using the shaker method. […] This indicate potential water solubility challenges especially for oral administration.
smiles,measurement,setting,value
"Oc1c(Br)cc(Cl)c2cccnc12 [Compound 5, 7-bromo-5-chloroquinolin-8-ol]",Processed sample or Auto-sampler stability No IS,"[1]; Plasma, 2 hr",97.8 ± 1.11
same,Processed sample or Auto-sampler stability With IS,"[1]; Plasma, 2 hr",95.9 ± 1.87
same,Short-term Stability,"[1]; Plasma, 2 hr bench-top",91.6 ± 4.06
same,Processed sample or Auto-sampler stability No IS,"[1]; Plasma, 4 hr",97.1 ± 5.42
same,Processed sample or Auto-sampler stability With IS,"[1]; Plasma, 4 hr",94.7 ± 4.20
same,Short-term Stability,"[1]; Plasma, 4 hr bench-top",95.1 ± 3.24
same,Processed sample or Auto-sampler stability No IS,"[1]; Plasma, 6 hr",95.5 ± 6.69
same,Processed sample or Auto-sampler stability With IS,"[1]; Plasma, 6 hr",97.3 ± 5.55
same,Short-term Stability,"[1]; Plasma, 6 hr bench-top",93.7 ± 1.17
same,Short-term Stability,"[1]; Plasma, 14 days at −80° C.",91.3 ± 5.45
same,Processed sample or Auto-sampler stability No IS,"[1]; Urine, 2 hr",92.3 ± 1.32
same,Processed sample or Auto-sampler stability With IS,"[1]; Urine, 2 hr",102.1 ± 1.35
same,Short-term Stability,"[1]; Urine, 2 hr bench-top",94.4 ± 1.83
same,Processed sample or Auto-sampler stability No IS,"[1]; Urine, 4 hr",92.8 ± 2.31
same,Processed sample or Auto-sampler stability With IS,"[1]; Urine, 4 hr",99.5 ± 1.89
same,Short-term Stability,"[1]; Urine, 4 hr bench-top",93.2 ± 4.10
same,Processed sample or Auto-sampler stability No IS,"[1]; Urine, 6 hr",94.2 ± 1.59
same,Processed sample or Auto-sampler stability With IS,"[1]; Urine, 6 hr",103.2 ± 2.33
same,Short-term Stability,"[1]; Urine, 6 hr bench-top",95.6 ± 1.44
same,Short-term Stability,"[1]; Urine, 14 days at −80° C.",101.6 ± 4.29
same,stability in the optimal co-solvent formulations,[2],stable in the co-solvent formulations for up to one month
same,Minimum Inhibitory Concentration MIC30 V583,E. faecalis V583,0.25 to 0.50 µg/mL
same,MIC,"E. faecalis V583; Enterococcus faecalis, V583, read-out: Minimum Inhibitory Concentration MIC30 V583",0.25 to 0.5 µg/mL
same,logP,[3],3.03 ± 0.04
